35 compounds from patent US12275729B2 (Merck Sharp & Dohme LLC, priority 2017, dated 2025) can be followed below.

Structures are written as SMILES.

By IC50 is commonly meant the concentration needed to halve the response being measured.

One assay deals with IDO1 (Homo sapiens, UniProt P14902). As to the kind of experiment: IDO1 Cellular Assay in HeLa Cells Stimulated with IFNγ. Type of assay: cell-based. Particulars: about 48 hours, read-out: Hela IC50.
Chain of IDO1 (P14902 whole entry): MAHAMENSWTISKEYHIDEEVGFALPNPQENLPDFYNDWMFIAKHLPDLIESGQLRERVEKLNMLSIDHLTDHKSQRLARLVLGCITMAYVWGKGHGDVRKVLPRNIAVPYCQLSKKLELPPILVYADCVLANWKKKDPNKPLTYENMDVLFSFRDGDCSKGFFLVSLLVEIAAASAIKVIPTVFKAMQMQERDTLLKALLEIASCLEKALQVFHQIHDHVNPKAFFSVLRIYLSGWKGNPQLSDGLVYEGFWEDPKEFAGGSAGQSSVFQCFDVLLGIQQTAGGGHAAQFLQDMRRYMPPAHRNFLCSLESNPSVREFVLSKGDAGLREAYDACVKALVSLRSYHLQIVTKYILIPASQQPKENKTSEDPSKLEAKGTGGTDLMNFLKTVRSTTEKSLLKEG
On to `C[C@H](C(=O)Nc1ccc(F)cc1)c1ccc2c(c1)CCCN2C(=O)CC(C)(C)C` [Example 90, (2S)-2-[1-(3,3-dimethylbutanoyl)-1,2,3,4-tetrahydroquinolin-6-yl]-N-(4-fluorophenyl)propanamide], for which the IC50 turned out to be 0.007 µM.
In the case of `COC(C(=O)Nc1ccc(F)cn1)c1ccc2c(c1)CCCN2C(=O)C1CC1` (centres unmarked) [Example 155, 2-(1-(cyclopropanecarbonyl)-1,2,3,4-tetrahydroquinolin-6-yl)-N-(5-fluoropyridin-2-yl)-2-methoxyacetamide], the IC50 came to 0.273 µM.
Same read-out and setting: for `CC(C)CC(=O)N1CCCc2cc(CNC(=O)c3ccc(F)cc3)ccc21` [Example 11, 4-fluoro-N-{[1-(3-methylbutanoyl)-1,2,3,4-tetrahydroquinolin-6-yl]methyl}benzamide] the value was 0.0414 µM.
Take `Cc1ccc(C(=O)NCc2ccc3c(c2)CCCN3C(=O)CC(C)C)cc1` [Example 5, 4-methyl-N-{[1-(3-methylbutanoyl)-1,2,3,4-tetrahydroquinolin-6-yl]methyl}benzamide]: the half-inhibitory concentration (IC50) turned out to be 0.0779 µM.
The same measure, in the same setting: for `C[C@@H](NC(=O)c1ccc(F)cc1)c1ccc2c(n1)CCCN2C(=O)[C@H]1CC1(F)F` (single isomer, unassigned) [Example 134] the value was 0.024 µM; for `CC(NC(=O)c1ccc(F)cc1)c1ccc2c(n1)C(O)CCN2C(=O)C1CC1` (single isomer, unassigned) [Example 198, N-(1-(5-(cyclopropanecarbonyl)-8-hydroxy-5,6,7,8-tetrahydro-1,5-naphthyridin-2-yl)ethyl)-4-fluorobenzamide], 0.393 µM.
Still for that read-out and setting: as for `C[C@H](C(=O)Nc1ccc(Cl)cc1)c1ccc2c(c1)CCCN2C(=O)c1cccc(Cl)c1` (single isomer, unassigned) [Example 56], the figure is 0.0031 µM.
On to `CC(NC(=O)c1ccc(Cl)cc1)c1ccc2c(n1)CCCN2C(=O)c1cc(C2CC2)ccn1` (centres unmarked) [Example 288, 4-chloro-N-(1-(5-(4-cyclopropylpicolinoyl)-5,6,7,8-tetrahydro-1,5-naphthyridin-2-yl)ethyl)benzamide], for which the IC50 was determined as 0.0032 µM.
Same read-out and setting: for `Cc1noc(C(=O)NCc2ccc3c(c2)CCCN3C(=O)c2cccc(Cl)c2)n1` [Example 21, N-{[1-(3-chlorobenzene-1-carbonyl)-1,2,3,4-tetrahydroquinolin-6-yl]methyl}-3-methyl-1,2,4-oxadiazole-5-carboxamide] the value was 0.0405 µM; for `CC(=O)N1CCCc2nc(C3(NC(=O)c4ccc(F)cc4)CC3)ccc21` [Example 174, N-[1-(5-acetyl-5,6,7,8-tetrahydro-1,5-naphthyridin-2-yl)cyclopropyl]-4-fluorobenzamide], 0.266 µM.
For `CC(NC(=O)c1ccc(F)cc1)c1ccc2c(n1)CCCN2C(=O)OCCF` (centres unmarked) [Example 210, 2-fluoroethyl 6-{1-[(4-fluorobenzene-1-carbonyl)amino]ethyl}-3,4-dihydro-1,5-naphthyridine-1(2H)-carboxylate], the concentration for half-maximal inhibition (IC50) stood at 0.0055 µM.
Still for that read-out and setting: as for `CC(NC(=O)c1ccc(F)cc1)c1ccc2c(n1)C(F)(F)CCN2C(=O)C1CC1` (centres unmarked) [Example 193, N-(1-(5-(cyclopropanecarbonyl)-8,8-difluoro-5,6,7,8-tetrahydro-1,5-naphthyridin-2-yl)ethyl)-4-fluorobenzamide], the figure is 5.29 µM; as for `O=C(Nc1ccc(F)cc1)C(c1ccc2c(n1)CCCN2C(=O)C1CC1)C1CC1` (single isomer, unassigned) [Example 261, 2-(5-(cyclopropanecarbonyl)-5,6,7,8-tetrahydro-1,5-naphthyridin-2-yl)-2-cyclopropyl-N-(4-fluorophenyl)acetamide], 0.024 µM; as for `O=C(NC1(c2ccc3c(n2)CCCN3c2ccncn2)CC1)c1ccc(F)cc1` [Example 246, 4-fluoro-N-(1-(5-(pyrimidin-4-yl)-5,6,7,8-tetrahydro-1,5-naphthyridin-2-yl)cyclopropyl)benzamide], 0.0093 µM.
Same read-out and setting: as for `Cn1cc(C(=O)N2CCCc3nc(C4(NC(=O)c5ccc(F)cc5)CC4)ccc32)cn1` [Example 173, 4-fluoro-N-{1-[5-(1-methyl-1H-pyrazole-4-carbonyl)-5,6,7,8-tetrahydro-1,5-naphthyridin-2-yl]cyclopropyl}benzamide], the figure is 0.0399 µM.
On the same count and under the same terms, as for `Cc1nc(C(=O)N2CCCc3cc(C(C)C(=O)Nc4ccc(F)cc4)ccc32)co1` (centres unmarked) [Example 45, N-(4-fluorophenyl)-2-[1-(2-methyl-1,3-oxazole-4-carbonyl)-1,2,3,4-tetrahydroquinolin-6-yl]propanamide], the figure is 0.0059 µM.
Regarding `CC(NC(=O)c1ccc(F)cc1)c1ccc2c(n1)CCCN2C(=O)C1(C)CCCCO1` (stereo in doubt) [Example 140, 4-fluoro-N-(1-{5-[(2R)-2-methyloxane-2-carbonyl]-5,6,7,8-tetrahydro-1,5-naphthyridin-2-yl}ethyl)benzamide], the IC50 was 1.62 µM.
Same read-out and setting: for `N#Cc1cccc(C(=O)N2CCCc3cc(C4(C(=O)Nc5ccc(F)cn5)CCC4)ccc32)c1` [Example 108, 1-[1-(3-cyanobenzene-1-carbonyl)-1,2,3,4-tetrahydroquinolin-6-yl]-N-(5-fluoropyridin-2-yl)cyclobutane-1-carboxamide] the value was 0.0049 µM; for `C[C@@H](NC(=O)c1ccc(F)cc1)c1ccc2c(c1)CCCN2C(=O)C1(F)CC1` (single isomer, unassigned) [Example 31], 1.23 µM.
On the same count and under the same terms, for `CC(C)(C)OC(=O)N1CCCc2cc(C3(C(=O)NC45CC(C4)C5)CCC3)ccc21` [Example 119, tert-butyl 6-{1-[(bicyclo[1.1.1]pentan-1-yl)carbamoyl]cyclobutyl}-3,4-dihydroquinoline-1(2H)-carboxylate] the value was 0.0876 µM; for `O=C(OC1CC1)N1CCCc2nc(C3(C(=O)Nc4ccc(Cl)cc4)COC3)ccc21` [compound 398, cyclopropyl 6-(3-((4-chlorophenyl)carbamoyl)oxetan-3-yl)-3,4-dihydro-1,5-naphthyridine-1(2H)-carboxylate], 0.00148 µM.
Same read-out and setting: for `CC(C(=O)Nc1ccc(F)cc1)c1ccc2c(n1)CCCN2C(=O)C1CCOCC1` (centres unmarked) [Example 167, N-(4-fluorophenyl)-2-[5-(oxane-4-carbonyl)-5,6,7,8-tetrahydro-1,5-naphthyridin-2-yl]propanamide] the value was 0.0051 µM; for `CC(NC(=O)c1ccc(F)cc1)c1ccc2c(n1)CCCN2C(=O)c1cccc(C#N)c1` (centres unmarked) [Example 147, N-{1-[5-(3-cyanobenzene-1-carbonyl)-5,6,7,8-tetrahydro-1,5-naphthyridin-2-yl]ethyl}-4-fluorobenzamide], 0.0017 µM; for `O=C(NC1(c2ccc3c(n2)CCCN3C(=O)C2CCCCO2)CC1)c1ccc(F)cc1` (centres unmarked) [Example 170, 4-fluoro-N-{1-[5-(oxane-2-carbonyl)-5,6,7,8-tetrahydro-1,5-naphthyridin-2-yl]cyclopropyl}benzamide], 0.0024 µM.
Regarding `O=C(C1CCOCC1)N1CCCc2nc(C3(C(=O)Nc4ccc(F)cc4)CCC3)ccc21` [Example 181, N-(4-fluorophenyl)-1-[5-(oxane-4-carbonyl)-5,6,7,8-tetrahydro-1,5-naphthyridin-2-yl]cyclobutane-1-carboxamide], the IC50 came out at 0.0031 µM.
Still for that read-out and setting: as for `CC(C)c1cc(C(=O)NCc2ccc3c(c2)CCCN3C(=O)c2cccc(Cl)c2)on1` [Example 18, N-{[1-(3-chlorobenzene-1-carbonyl)-1,2,3,4-tetrahydroquinolin-6-yl]methyl}-3-(propan-2-yl)-1,2-oxazole-5-carboxamide], the figure is 0.186 µM; as for `Cc1cc(C(=O)NCc2ccc3c(c2)CCCN3C(=O)c2cccc(Cl)c2)no1` [Example 22, N-{[1-(3-chlorobenzene-1-carbonyl)-1,2,3,4-tetrahydroquinolin-6-yl]methyl}-5-methyl-1,2-oxazole-3-carboxamide], 0.045 µM; as for `COC(=O)N1CCCc2nc(C3(NC(=O)c4ccc(F)cc4)CC3)ccc21` [Example 215, methyl 6-{1-[(4-fluorobenzene-1-carbonyl)amino]cyclopropyl}-3,4-dihydro-1,5-naphthyridine-1(2H)-carboxylate], 0.057 µM.
The same measure, in the same setting: as for `C[C@H](C(=O)Nc1ccc(F)cc1)c1ccc2c(c1)CCCN2C(=O)[C@@H]1CCCO1` [Example 84, (2S)-N-(4-fluorophenyl)-2-{1-[(2S)-oxolane-2-carbonyl]-1,2,3,4-tetrahydroquinolin-6-yl]propanamide], the figure is 0.0323 µM; as for `Cc1nccc(N2CCCc3nc(C4(C(=O)Nc5ccc(F)cc5)CCC4)ccc32)n1` [Example 403, N-(4-fluorophenyl)-1-(5-(2-methylpyrimidin-4-yl)-5,6,7,8-tetrahydro-1,5-naphhyridin-2-yl)cyclobutane-1-carboxamide], 0.00215 µM.

Still in this assay, the particulars now being: read-out: Hela IC50.
Consider `CCCOCCOC(=O)N1CCCc2nc(C(C)NC(=O)c3ccc(F)cc3)ccc21` (centres unmarked) [Example 323, 2-propoxyethyl 6-(1-(4-fluorobenzamido)ethyl)-3,4-dihydro-1,5-naphthyridine-1(2H)-carboxylate], for which the IC50 stood at 0.0044 µM.
Turning to `Cc1nc(N2CCCc3nc(C(C)NC(=O)c4ccc(Cl)cc4)ccc32)c2cc(Cl)ccc2n1` (centres unmarked) [Example 359, 5-(6-chloro-2-methylquinazolin-4-yl)-2-(1-(4-chlorobenzamido)ethyl)-5,6,7,8-tetrahydro-1,5-naphthyridin-1-ium 2,2,2-trifluoroacetate], the IC50 is 0.025 µM.
On the same count and under the same terms, as for `O=C(OC1CC1)N1CCCc2nc(C3(C(=O)Nc4ccc(Cl)nc4)CCC3)ccc21` [Example 412, cyclopropyl 6-(1-((6-chloropyridin-3-yl)carbamoyl)cyclobutyl)-3,4-dihydro-1,5-naphthyridine-1(2H)-carboxylate], the figure is 0.00092 µM; as for `CC(NC(=O)c1ccc(F)cc1)c1ccc2c(n1)CCCN2c1ncccc1F` (centres unmarked) [Example 375, 4-fluoro-N-(1-(5-(3-fluoropyridin-2-yl)-5,6,7,8-tetrahydro-1,5-naphthyridin-2-yl)ethyl)benzamide], 1.53 µM; as for `CC(NC(=O)c1ccc(Cl)cc1)c1ccc2c(n1)CCCN2c1nc(Cl)nc2c1CCCC2` (centres unmarked) [Example 361, 5-(2-chloro-5,6,7,8-tetrahydroquinazolin-4-yl)-2-(1-(4-chlorobenzamido)ethyl)-5,6,7,8-tetrahydro-1,5-naphthyridin-1-ium 2,2,2-trifluoroacetate], 0.00835 µM.
